Laboratory results as given in patent publication US8772498B2, “Alkylamine-substituted dicyanopyridine and amino acid ester prodrugs thereof” (Bayer Intellectual Property GmbH, priority 2009, dated 2014).
Structures can show the parent of a compound that is named as a salt.

Experiments:
[1] = Determination of the solubility in 5% strength aqueous dextrose solution; assay type: physicochemical; conditions: for solubility at 24 h: saline or isotonic, thermodynamic from solid, room temperature
Procedure: B-8. Determination of Solubility, Stability and Liberation Behavior a) Determination of the Solubility:
The test substance is suspended in 5% strength aqueous dextrose solution. This suspension is shaken at room temperature for 24 h. After ultracentrifugation at 224 000 g for 30 min, the supernatant is diluted with DMSO and analyzed by HPLC. A two-point calibration plot of the test compound in DMSO is used for quantification.
Agilent 1100 with DAD (G1315A), quat. pump (G1311A), autosampler CTC HTS PAL, degasser (G1322A) and column thermostat (G1316A); column: Phenomenex Gemini C18, 5 μm, 50 mm×2 mm; temperature: 40° C.; eluent A: water/phosphoric acid pH 2; eluent B: acetonitrile; flow rate: 0.7 ml/min; gradient: 0-0.5 min 85% A, 15% B; ramp: 0.5-3 min 10% A, 90% B; 3-3.5 min 10% A, 90% B; ramp: 3.5-4 min 85% A, 15% B; 4-5 min 85% A, 15% B.
Agilent 1100 with DAD (G1315A), quat. pump (G1311A), autosampler CTC HTS PAL, degasser (G1322A) and column thermostat (G1316A); column: VDSoptilab Kromasil 100 C18, 3.5 μm, 60 mm×2.1 mm; temperature: 30° C.; eluent A: water+5 ml perchloric acid/I; eluent B: acetonitrile; flow rate: 0.75 ml/min; gradient: 0-0.5 min 98% A, 2% B; ramp: 0.5-4.5 min 10% A, 90% B; 4.5-6 min 10% A, 90% B; ramp: 6.5-6.7 min 98% A, 2% B; 6.7-7.5 min 98% A, 2% B.

adenosine A1 receptor = target: T1, adenosine A1 receptor (Homo sapiens, UniProt P30542); test: Indirect determination of adenosine agonism by gene expression (luciferase), A1 cells; assay type: cell-based; conditions: CHO cells, luciferase readout, 1 μM forskolin
T1 construct: expressed in transfected cells; host or cells: CHO (Chinese Hamster Ovary)
T1 sequence (P30542 1-326): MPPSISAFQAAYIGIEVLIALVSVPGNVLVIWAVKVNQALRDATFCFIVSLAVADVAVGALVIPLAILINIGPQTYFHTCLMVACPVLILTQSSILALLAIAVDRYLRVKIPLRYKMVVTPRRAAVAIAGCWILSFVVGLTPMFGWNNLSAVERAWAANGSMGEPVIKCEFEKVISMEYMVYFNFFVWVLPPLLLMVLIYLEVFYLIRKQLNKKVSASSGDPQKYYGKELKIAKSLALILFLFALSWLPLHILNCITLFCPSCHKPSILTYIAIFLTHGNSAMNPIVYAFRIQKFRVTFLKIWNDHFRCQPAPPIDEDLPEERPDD
Source text: (§1) B-1. Indirect Determination of the Adenosine Agonism by Way of Gene Expression
(§2) Cells of the CHO (Chinese Hamster Ovary) permanent cell line are transfected stably with the cDNA for the adenosine receptor subtypes A1, A2a and A2b. The adenosine A1 receptors are coupled to the adenylate cyclase by way of G, proteins, while the adenosine A2a and A2b receptors are coupled by way of Gs proteins. In correspondence with this, the formation of cAMP in the cell is inhibited or stimulated, respectively. After that, expression of the luciferase is modulated by way of a cAMP-dependent promoter. The luciferase test is optimized, with the aim of high sensitivity and reproducibility, low variance and good suitability for implementation on a robot system, by varying several test parameters, such as cell density, duration of the growth phase and the test incubation, forskolin concentration and medium composition. The following test protocol is used for pharmacologically characterizing cells and for the robot-assisted substance screening:
(§3) The stock cultures are grown, at 37° C. and under 5% CO2, in DMEM/F12 medium containing 10% FCS (fetal calf serum) and in each case split 1:10 after 2-3 days. The test cultures are seeded in 384-well plates with 2000 cells per well and grown at 37° C. for approx. 48 hours. The medium is then replaced with a physiological sodium chloride solution (130 mM sodium chloride, 5 mM potassium chloride, 2 mM calcium chloride, 20 mM HEPES, 1 mM magnesium chloride hexahydrate, 5 mM sodium bicarbonate, pH 7.4). The substances to be tested, which are dissolved in DMSO, are pipetted into the test cultures (maximum final concentration of DMSO in the test mixture: 0.5%) in a dilution series of from 5×10^−11 M to 3×10^−6 M (final concentration). 10 minutes later, forskolin is added to the A1 cells and all the cultures are subsequently incubated at 37° C. for four hours. After that, 35 μl of a solution which is composed of 50% lysis reagent (30 mM disodium hydrogenphosphate, 10% glycerol, 3% TritonX100, 25 mM TrisHCl, 2 mM dithiotreitol (DTT), pH 7.8) and 50% luciferase substrate solution (2.5 mM ATP, 0.5 mM luciferin, 0.1 mM coenzyme A, 10 mM tricine, 1.35 mM magnesium sulfate, 15 mM DTT, pH 7.8) are added to the test cultures, which are shaken for approx. 1 minute and the luciferase activity is measured using a camera system. The ECK values are determined, i.e., the concentrations at which 50% of the luciferase answer is inhibited in the case of the A1 cell, and, respectively, 50% of the maximum stimulation with the corresponding substance is achieved in the case of the A2b and A2a cells.
(§4) Table 1 below lists the ECK values of representative working examples for the receptor stimulation on adenosine A1, A2a and A2b receptor subtypes: […]

adenosine A2b receptor = target: T2, adenosine A2b receptor (Homo sapiens, UniProt P29275); test: Indirect determination of adenosine agonism by gene expression (luciferase), A2b cells; assay type: cell-based; conditions: CHO cells, luciferase readout
T2 construct: expressed in transfected cells; host or cells: CHO (Chinese Hamster Ovary)
T2 sequence (P29275 1-332): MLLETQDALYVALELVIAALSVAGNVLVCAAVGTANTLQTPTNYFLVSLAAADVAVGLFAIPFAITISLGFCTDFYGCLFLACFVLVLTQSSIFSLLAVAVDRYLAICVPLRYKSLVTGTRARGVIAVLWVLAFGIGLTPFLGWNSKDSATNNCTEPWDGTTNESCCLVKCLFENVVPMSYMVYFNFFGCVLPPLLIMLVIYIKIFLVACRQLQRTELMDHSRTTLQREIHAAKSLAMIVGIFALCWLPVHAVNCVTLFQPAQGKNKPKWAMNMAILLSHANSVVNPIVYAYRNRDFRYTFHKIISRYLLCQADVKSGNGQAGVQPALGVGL
Source text: as §1, §2, §3, §4

[2] = Stability in buffer at various pH values; assay type: physicochemical
Procedure: b) Stability in Buffer at Various pH Values:
0.3 mg of the test substance is weighed into a 2 ml HPLC vial and 0.5 ml of acetonitrile or acetonitrile/DMSO (9:1) is added. The substance is dissolved by putting the sample vessel in an ultrasonic bath for about 10 seconds. Then 0.5 ml of the respective (buffer) solution is added, and the sample is again treated in the ultrasonic bath.
(Buffer) solutions employed:
pH 4: 1 liter of Millipore water is adjusted to pH 4.0 with 1 N hydrochloric acid;
pH 7.4: 90.0 g of sodium chloride, 13.61 g of potassium dihydrogen phosphate and 83.35 g of 1 N sodium hydroxide solution are made up to 1 liter with water; this solution is then further diluted 1:10 with Millipore water.
5 μl portions of the test solution are analyzed by HPLC for their content of unchanged test substance, and of active substance (A) produced, every hour over a period of 24 hours at 37° C. The percentage areas of the appropriate peaks are used for quantification.
HPLC method for Examples 41 and 44:
(§5) Agilent 1100 with DAD (G1315B), binary pump (G1312A), autosampler (G1329A), column oven (G1316A), thermostat (G1330B); column: Kromasil 100 C18, 250 mm×4 mm, 5 μm; column temperature: 30° C.; mobile phase A: water+5 ml of perchloric acid/liter, eluent B: acetonitrile; gradient: 0 min 90% A→5.0 min 40% A→18.0 min 10% A→19.0 min 10% A→21.0 min 90% A→23.0 min 90% A; flow rate: 2.0 ml/min; UV detection: 288 nm.
HPLC Method for Examples 50 and 59:
as §5, with “125” for “250”, “60% A→7.0 min 60% A→10.0” for “40% A→18.0”, “A→12.0” for “A→19.0”, “A→14.0” for “A→21.0”, “A→16.0” for “A→23.0”, “294” for “288”
HPLC Method for Example 54:
as §5, with “(G1314A),” for “(G1315B),”, “(G1330A);” for “(G1330B);”
The ratios of the peak areas (F) at the respective time points in relation to the peak areas at the starting time are shown in Table 2 for representative exemplary embodiments: […]

For `CNc1nc(SCc2csc(-c3ccc(Cl)cc3)n2)c(C#N)c(-c2ccc(OCCOC(=O)[C@@H](N)CCCN)cc2)c1C#N` [Example 52, 2-{4-(2-({(2-(4-Chlorophenyl)-1,3-thiazol-4-yl)methyl}sulfanyl)-3,5-dicyano-6-(methylamino)pyridin-4-yl)phenoxy}ethyl L-ornithinate bis(trifluoroacetate)], the solubility at 24 h [1] was 280 µg/mL.

`N#Cc1c(SCc2csc(-c3ccc(Cl)cc3)n2)nc(N2CCC(F)(F)C2)c(C#N)c1-c1ccc(OCCO)cc1` [Example 26, 2-({(2-(4-Chlorophenyl)-1,3-thiazol-4-yl)methyl}sulfanyl)-6-(3,3-difluoropyrrolidin-1-yl)-4-(4-(2-hydroxyethoxy)phenyl)pyridine-3,5-dicarbonitrile] gave an EC50 (adenosine A1 receptor) of 0.5 nM and an EC50 (adenosine A2b receptor) of 1000 nM.

With `N#Cc1c(SCc2csc(-c3ccc(Cl)cc3)n2)nc(N2CCCC2)c(C#N)c1-c1ccc(OCCOC(=O)CCN)cc1` [Example 50, 2-{4-(2-({(2-(4-Chlorophenyl)-1,3-thiazol-4-yl)methyl}sulfanyl)-3,5-dicyano-6-(pyrrolidin-1-yl)pyridin-4-yl)phenoxy}ethyl beta-alaninate trifluoroacetate] the “% test substance after 4 h (F(t = 4 h) × 100/F(t = 0 h))” value (“% test substance after 4 h” below) ([2]; pH 4, 37° C.) was 99%, the “% test substance after 24 h (F(t = 24 h) × 100/F(t = 0 h))” value (“% test substance after 24 h” for short) ([2]; pH 4, 37° C.) was 99% and the “% test substance after 4 h” value ([2]; pH 7.4, 37° C.) was 94%. For the same compound, the “% test substance after 24 h” value ([2]; pH 7.4, 37° C.) was 78%.

`C[C@H](NC(=O)[C@@H](N)CCCN)C(=O)OCCOc1ccc(-c2c(C#N)c(SCc3csc(-c4ccc(Cl)cc4)n3)nc(N3CCCC3)c2C#N)cc1` [Example 58, 2-{4-(2-({(2-(4-Chlorophenyl)-1,3-thiazol-4-yl)methyl}sulfanyl)-3,5-dicyano-6-(pyrrolidin-1-yl)pyridin-4-yl)phenoxy}ethyl L-ornithyl-L-alaninate bis(trifluoroacetate)] showed a solubility at 24 h [1] of 470 µg/mL.

In the case of `CCCNc1nc(SCc2csc(-c3ccc(Cl)cc3)n2)c(C#N)c(-c2ccc(OCCO)cc2)c1C#N` [Example 12], the “Solubility of the active substance” value ([1]; result in words) is reported as “below the detection limit”.

Work on `CCCNc1nc(SCc2csc(-c3ccc(Cl)cc3)n2)c(C#N)c(-c2ccc(OCCOC(=O)[C@H](C)NC(=O)[C@H](C)N)cc2)c1C#N` [Example 51, 2-{4-(2-({(2-(4-Chlorophenyl)-1,3-thiazol-4-yl)methyl}sulfanyl)-3,5-dicyano-6-(propylamino)pyridin-4-yl)phenoxy}ethyl L-alanyl-L-alaninate trifluoroacetate] yielded a solubility at 24 h [1] of 540 µg/mL.

For `CCCNc1nc(SCc2csc(-c3ccc(Cl)cc3)n2)c(C#N)c(-c2ccc(OCCOC(=O)[C@H](C)NC(=O)[C@@H](N)CCCCN)cc2)c1C#N` [Example 54, 2-{4-(2-({(2-(4-Chlorophenyl)-1,3-thiazol-4-yl)methyl}sulfanyl)-3,5-dicyano-6-(propylamino)pyridin-4-yl)phenoxy}ethyl L-lysyl-L-alaninate bis(trifluoroacetate)], the “% test substance after 4 h” value ([2]; pH 4, 37° C.) was 98%, the “% test substance after 24 h” value ([2]; pH 4, 37° C.) was 97% and the “% test substance after 4 h” value ([2]; pH 7.4, 37° C.) was 29%. For the same compound, the “% test substance after 24 h” value ([2]; pH 7.4, 37° C.) was 0% and the solubility at 24 h [1] was 640 µg/mL.

For `N#Cc1c(SCc2csc(-c3ccc(Cl)cc3)n2)nc(N2CCCC2)c(C#N)c1-c1ccc(OCCOC(=O)[C@@H](N)CCCN)cc1` [Example 59, 2-{4-(2-({(2-(4-Chlorophenyl)-1,3-thiazol-4-yl)methyl}sulfanyl)-3,5-dicyano-6-(pyrrolidin-1-yl)pyridin-4-yl)phenoxy}ethyl L-ornithinate bis(trifluoroacetate)], the “% test substance after 4 h” value ([2]; pH 4, 37° C.) was 99%, the “% test substance after 24 h” value ([2]; pH 4, 37° C.) was 95% and the “% test substance after 4 h” value ([2]; pH 7.4, 37° C.) was 0%. For the same compound, the “% test substance after 24 h” value ([2]; pH 7.4, 37° C.) was 0%.
